Experimental data published in patent US6846907B1, “Osteoporosis treatment” (Hamilton Civic Hospitals Research Centre, priority 1999, dated 2005).
“Also recorded” adds a separate entry of the source. Ends that are not written are not given here.

B1: IL-11: cytokine interleukin-11 (protein, UniProt P20809 22-199, looked up)
Interleukin-11: PGPPPGPPRVSPDPRAELDSTVLLTRSLLADTRQLAAQLRDKFPADGDHNLDSLPTLAMSAGALGALQLPGVLTRLRADLLSYLRHVQWLRRAGGSSLKTLEPELGTLQARLDRLLRRLQLLMSRLALPQPPPDPPAPPLAPPSSAWGGIRAAHAILGGLHLTLDWAVRGLLLLKTRL
B2: H289→Y289 mutant solubilized IL-11 receptor: gp130 binding region mutant (H289 to Y) recombinant soluble human IL-11 receptor of Example 3 (protein)
chain: SPCPQAWGPPGVQYGQPGRSVKLCCPGVTAGDPVSWFRDGEPKLLQGPDSGLGHELVLAQADSTDEGTYICQTLDGALGGTVTLQLGYPPARPVVSCQAADYENFSCTWSPSQISGLPTRYLTSYRKKTVLGADSQRRSPSTGPWPCPQDPLGAARCVVHGAEFWSQYRINVTEVNPLGASTRLLDVSLQSILRPDPPQGLRVESVPGYPRRLRASWTYPASWPCQPHFLLKFRLQYRPAQHPAWSTVEPAGLEEVITDAVAGLPYAVRVSARDFLDAGTWSTWSPEAWGTPSTGTIPKEIPAWGQLHTQPEVEPQVDSPAPPRPSLQPHPRLLDHRDSVEQVAVLA
modifications: left off: small tags and cut ends

Assays:
Interleukin-11 = assay: cell-based or functional assay
IL-11/IL-11R interaction = assay: Inhibition of the productive interaction of IL-11 with IL-11R by IL-11 binding peptides
[1] = test system: cocultures of murine bone marrow and calvaria cells; assay: TRAP assay: IL-11 induced osteoclast formation in cocultures of murine bone marrow and calvaria cells; type: cell-based; details: for IL-11 induced osteoclast formation (TRAP+ multinucleated cells): 20 ng/ml IL-11, 10, 100 or 1000 ng/ml test substance, 9 days, FIGS. 7A, 7B, 8, 12
Text: Particular IL-11 antagonists useful in the treatment of IL-11 related bone density disorders may be identified using the TRAP assay and the bone nodule formation assay, discussed herein. The TRAP assay is known in the art and involves co-culturing murine calvarla (osteoblasts) and bone marrow cells in vitro and then quantifying osteoclast formation by counting the number of tartrate-resistant acid phosphatase positive (TRAP+) multinucleated cells. […] These potential IL-11 antagonists may be screened to determine if they are IL-11 antagonists by examining their activity in the TRAP assay and the bone nodule formation assay.
Post menopausal osteoporosis is characterized by a general reduction in bone mass, resulting from an imbalance between osteoblast-mediated bone formation and bone resorption by the osteoclast. While the osteoblast is responsible for the formation of new bone or osteoid, it also appears to control the activation and/or number of osteoclasts by releasing cytokines such as IL-6 or IL-11. This process can be examined using a “TRAP assay” which involves co-culturing murine calvaria (osteoblasts) and bone marrow cells in vitro and then quantifying osteoclast formation by counting the number of tartrate-resistant acid phosphatase positive (TRAP+) multinucleated cells. Ovariectomized (OVX) rats or mice provide a satisfactory animal model for postmenopausal women in studies of osteoporosis.
The effect of IL-11 on osteoclast development in cocultures of murine bone marrow and calvaria cells was examined using standard techniques. Briefly, bone marrow cultures were established by removing femurs from mice, dissecting away soft tissue, and removing the distal and proximal ends of the femur. The marrow was then flushed with 5 ml α MEM and 1.0% penicilin-streptomycin using a 25 gauge needle. The bone marrow cells were then suspended to a concentration of 5,000,000 cells per ml in α MEM containing 15% fetal calf serum (charcoal treated) to remove cells adherent to plastic. The non-adherent cells were then co cultured for an additional 9 days with murine calvaria cells prior to being fixed and stained for TRAPase activity (stains were obtained from Sigma Chemical Co., St. Louis, Mo.). TRAP+MNC's have the ability to form resorption pits in smooth cortical bone slices and are therefore considered to be of osteoclast origin.
The effect of IL-11 on osteoclast development in cocultures of murine bone marrow and calvaria cells was examined by maintaining these cultures in the presence of various specific concentrations of IL-11 for 9 days. After 9 days of culture, the cells were stained for TRAPase activity and the number of multinucleated TRAP+cells were determined. The results of this experiment are depicted in Table I. Data are expressed as mean +/−SEM. […]

[2] = test system: murine calvaria cell culture; assay: Bone nodule formation assay in the presence of exogenous IL-11 and IL-11 antagonists; type: cell-based; details: 20 ng/ml exogenous IL-11; for reversal of the inhibitory effect of IL-11 on bone nodule formation: 21 days, FIGS. 9, 10
Experimental: Bone nodule formation was measured using standard techniques. Briefly, calvaria cell cultures were established as follows: Calvaria cells were obtained from 2 day old fetal mouse calavariae by collagenase digestion. The cells were then cultured for 21 days in the presence of 0.5 mM ascorbic acid and 10 mM β-glycerophosphate. Where indicated in the experimental descriptions below, IL-11 and the mutant IL-11 receptor of experiment 4 were added to the culture at day 0 and every 3-4 days thereafter until the removal of the medium for analysis. Bone nodule formation was quantified by counting alizarin red stain nodules under a light microscope.
The effect of a gp130 binding region mutant soluble IL-11 receptor of type described in Experiment 4 and produced by the process of Experiment 3 on bone nodule formation in the presence of 20 ng/ml of exogenous IL-11 was assessed, and the results are depicted in FIG. 9. […] Thus, IL-11 antagonists such as mutant IL-11Rs can enhance bone nodule formation.
It was desired to determine if bone nodule formation could be modulated in a manner similar to that reported in Example 6 using an IL-11 antagonist peptide such as the one used in Example 5. To achieve this, the procedure of Example 6 was repeated, with the substitution of peptide 1 for the solubilized mutant IL-11 receptor. The results of this experiment are depicted in FIG. 10.

[3] = test system: murine calvaria cells (primary osteoblasts); assay: Bone nodule formation assay, effect of IL-11; type: cell-based; details: various concentrations of IL-11; 250 μM ascorbic acid, 10 mM β-glycerol phosphate; FIG. 5
Experimental: The effect of IL-11 on bone formation was examined using the bone nodule formation assay. Murine calvaria cells (primary osteoblasts) were cultured in the presence of 250 μM ascorbic add and 10 mM β-glycerol phosphate, and in the presence of various amounts of interleukin-11. After culturing, the culture media were plated out and the number of bone nodules per plate was counted. The results are shown on the accompanying FIG. 5, where number of bone nodules per plate is plotted as the vertical axis, with the different concentrations of interleukin on the horizontal axis, not to scale. Each bar represents the result on experiments containing a different concentration of interleukin-11, as noted on FIG. 5.

Molecule | productive interaction of IL-11 with IL-11R (IL-11/IL-11R interaction) | IL-11 induced osteoclast formation (TRAP+ multinucleated cells) [1] | reversal of the inhibitory effect of IL-11 on bone nodule formation [2] | also measured
H289→Y289 mutant solubilized IL-11 receptor (from UniProt Q14626 24-370) | – | – | – | concentration allowing enhanced bone nodule formation in the presence of 20 ng/ml exogenous IL-11 (Interleukin-11): 10 ng/mL
RRLRASW [SEQ ID NO. 5] | capable of inhibiting the productive interaction of IL-11 and IL-11R | – | – | –
RRLRASWTYPASWPCQPHFL [peptide 1] | binds IL-11 and prevents its productive interaction with IL-11R | inhibits IL-11 induced osteoclast formation | able to reduce the inhibitory effects | bone nodule formation relative to control samples ([2]; 50 ng/ml peptide, FIG. 10): allowed bone nodule formation in excess of that seen in the control samples
Ser Ile Leu Arg Pro Asp Pro Pro Gin Gly Leu Arg Val Glu Ser Val Pro Gly Tyr Pro (SILRPDPPQGLRVESVPGYP; listed as Homo sapiens) [SEQ. ID. NO. 6] | has been found to inhibit the productive interaction between IL-11 and IL-11R | – | – | –
Thr Tyr Pro Ala Ser Trp Pro Cys Gin Pro His Phe Leu Leu Lys Phe Arg Leu Gln Tyr (TYPASWPCQPHFLLKFRLQY; listed as Homo sapiens) [peptide 2] | – | does not | unable to reduce the inhibition of nodule formation by IL-11 | –
B1 | – | – | – | osteoclast formation in vitro, effect of IL-11 ([1]; cocultures of murine calvaria and bone marrow cells): potent stimulator of osteoclast formation; number of bone nodules per plate [3]: number of bone nodules per plate decreased; also recorded: inhibits bone formation
B2 | – | capable of inhibiting IL-11-induced osteoclast formation | can reverse the effect of exogenous IL-11 | bone nodule formation relative to the level in the absence of exogenous IL-11 ([2]; 10 ng/ml mutant receptor, FIG. 9): enhanced bone nodule formation
